In ChEMBL document CHEMBL1144130, “11-Deoxyfistularin-3, a new cytotoxic metabolite from the caribbean sponge Aplysina fistularis insularis” (1999):
In brackets after ≈: the same amount, converted by molar mass.

Columns and labels:
Type in all cases: functional
RD = experiment: Cytotoxicity against human RD cells after 96 hrs by MTT assay; conditions: read-out: LD50 (the source's name)
HEp-2 = experiment: Cytotoxicity against human Hep2 cells after 96 hrs by MTT assay; conditions: HEp-2, 96 h, read-out: LD50 (the source's name)
MCF7 = experiment: Cytotoxicity against human MCF7 cells after 96 hrs by MTT assay; conditions: MCF7, 96 h, read-out: LD50 (the source's name)
[1] = Cytotoxicity against human XL17 cells after 96 hrs by MTT assay; conditions: XL17, 96 h, read-out: LD50 (the source's name)
LoVo = experiment: Cytotoxicity against human LoVo cells after 96 hrs by MTT assay; conditions: read-out: LD50 (the source's name)
HeLa = experiment: Cytotoxicity against human HeLa cells after 96 hrs by MTT assay; conditions: read-out: LD50 (the source's name)

Structure (SMILES): COC1=C(Br)[C@H](O)[C@@]2(C=C1Br)CC(C(=O)NCCCOc1c(Br)cc(C(O)CNC(=O)C3=NO[C@]4(C=C(Br)C(OC)=C(Br)[C@@H]4O)C3)cc1Br)=NO2 (stereo partly specified)
- CC50 (RD): 17 µg/mL (≈ 15.5 µM)
- CC50 (HEp-2): 17 µg/mL (≈ 15.5 µM)
- CC50 (MCF7): > 50 µg/mL
- CC50 [1]: 17 µg/mL (≈ 15.5 µM)
- CC50 (LoVo): 17 µg/mL (≈ 15.5 µM)
- CC50 (HeLa): 17 µg/mL (≈ 15.5 µM)
